The subject of one experiment is MC65 cells. Description: Cell death in MC65 AD cell model under tetracycline withdrawal (WST-1 viability). In kind it is cell-based, human. As to the method:
Cell culture. Cells were cultured in EMEM (SK-N-SH), DMEM (MC65) supplemented with 10% heat-inactivated fetal bovine serum and antibiotics (100 U mL^−1 penicillin, 100 μg mL^−1 streptomycin, and 0.25 μg mL^−1 of amphotericin B; Gibco-Invitrogen). Incubators were maintained at 5% CO2, and 37° C. Medium was replaced every 3-4days. For most experiments, cells were seeded at 100,000 cells mL^−1 in either 6-well or 96 well plates 24 h prior to assay. In most cases, media was replaced with serum free optimem media 24 h prior to assay.
Cell viability. Cell maintained in a clear 96 well plate. On the day of assay, 10 μl of WST-1 reagent (11644807001, Sigma Aldrich) was added to each well and cells incubated in a 37° C. 5% CO2 incubator for 2-4 hours. Absorbance was measured at 450 nm using a gemini series spectrophotometer.
The compounds were tested as follows: in neuroblast MC65 cell culture model with overexpressed C99 fragment of amyloid precursor protein (APP) upon tetracycline withdrawal or with external APP added; and in fruit fly (D. melanogaster) model of AD with overexpressed APP and BACE1. The compounds (1 μM) were mixed with food. Flies were trained to recognize “positive” and “negative” odors (olfaction aversion). The compounds were also treated in hAPP (J20) mice which overexpress a familial variant of APP. The compounds were injected for 14 days (1 mg/kg). […]
Background: Tetrazolium dyes change colour on reduction, which living cells bring about.

In another experiment the target is 20S proteasome (Homo sapiens, UniProt P25787+P60900). To be noted: cited from earlier work.
Experiment [1] addresses T1, latent 20S core proteasome, PGPH peptidase (Homo sapiens, UniProt P25787+P60900).
T1 construct: purified from erythrocytes; purchased Boston Biochem, Inc. or Enzo Life Sciences, Inc; host or cells: human erythrocytes
Description: Post glutamyl peptide hydrolyzing (PGPH) peptidase activity of the core proteasome. The class given is biochemical. Here is the method:
Determination of Proteasome Activity. Human housekeeping core (20S) proteasome purified from erythrocytes was purchased from Boston Biochem, Inc. (Cambridge, Mass.) or from Enzo Life Sciences, Inc. (Farmingdale, N.Y.). Multiple batches of the proteasomes were used and performed reproducibly. The stock proteasome was diluted to 0.2 mg/mL working solution in “dilution buffer” (50 mM Tris/HCl, pH 8, 20% glycerol). The following model peptide substrates, releasing fluorescent 7-amino-4-methylcoumarin (AMC) reporter group after cleavage, were used: succinyl-LeuLeuValTyr-AMC (SEQ ID NO: 14) (for the ChT-L peptidase; SucLLVY-AMC; Bachem Bioscience Inc., Philadelphia, Pa.), butoxycarbonyl-LeuArgArg-AMC (T-L; Bachem Bioscience Inc., Philadelphia, Pa.) and carbobenzoxy-LeuLeuGlu-AMC (PGPH; Enzo Life Sciences Inc., Farmingdale, N.Y.). […] After mixing, the plate was transferred to a Fluoroskan Ascent plate reader (Thermo Fisher Scientific Inc., Waltham, Mass.) for 1 h (37° C.), with fluorescence readouts once per minute. […] The reaction rates were calculated from a linear segment of kinetic curves constructed from measurements in 1-min intervals. Reaction rates were calculated using a linear fit performed with the Slope Analyser and Enzyme Kinetics applications launched within Origin Pro 2019 (OriginLab Corporation, Northampton, Mass.). […]

The test system of another experiment is hAPP(J20) mice. Description: Novel object recognition assay in hAPP(J20) mice. The class given is in vivo, mouse. To be noted: 14 days IP injection, 1 mg/kg, listed as Tat-TOD. As to the method:
Novel object recognition test. To measure recognition of a previously encountered object, animals are placed in an opacified rat cage with bedding for 10 min. The following (training) day, mice are returned to the chamber, which now contains two identical objects, and allowed to explore the arena for 5 minutes. Percent of time exploring each object is recorded using TopScan. During testing (4 hours after training) one of the objects in the box is replaced with a new object and the side of the replaced object randomized amongst animals. Mice are given 5 mins to explore the two objects, and percent time exploring each object is recorded using TopScan. A discrimination ratio calculated as (tnovel−tfamiliar)/(tnovel+tfamiliar) is used as a measure of retention of the priorly encountered object (positive and negative discrimination ratio values indicate a preference for exploration of the novel and familiar objects, respectively).
The compounds were tested as follows: in neuroblast MC65 cell culture model with overexpressed C99 fragment of amyloid precursor protein (APP) upon tetracycline withdrawal or with external APP added; and in fruit fly (D. melanogaster) model of AD with overexpressed APP and BACE1. The compounds (1 μM) were mixed with food. Flies were trained to recognize “positive” and “negative” odors (olfaction aversion). […]

In experiment [2] the target is T2, purified human 20S proteasome (Homo sapiens, UniProt P25787+P60900).
T2 construct: purified from erythrocytes; purchased Boston Biochem, Inc. or Enzo Life Sciences, Inc; host or cells: human erythrocytes
The experiment in a line: In-gel overlay activity on non-denaturing gel, 20S proteasome. To be noted: 1 microM, 15 min, 100 microM Suc-LLVY-MCA. The class given is biochemical. Here is the method: Purified human 20S and 26S proteasomes were separated on non-denaturing polyacrylamide gel. The gel was overlayed with reaction buffer containing 100 microM fluorogenic peptide substrate Suc-LLVY-MCA (SEQ ID NO: 14) and 1% of vehicle solvent (DMSO) or the substrate and 1 microM Tat1 8,9 TOD. The gel was photographed after 15 min of incubation and then stained for the total protein content with Coomassie Brilliant Blue, and photographed. […] The protein content was the same for the control and Tat-overlayed sets. The activities of both 26S and 20S are enhanced by Tat1 8,9 TOD. The enhanced activity of 26S was not the result of Tat1 8,9 TOD—induced breaking of the 26S assembly into its components (19S and 20S) and activation of the released 20S catalytic core that still remains in the gel together with the whole 26S assembly. […] Traces of the 20S in both control 26S preparation and preparation pre-incubated with Tat1 8,9 TOD.

SMILES strings stand for the structures. “Also recorded” adds a separate entry of the source.

Consider 2 compounds from patent US20220332758A1, “PEPTIDE-BASED COMPOSITIONS AND METHODS FOR TREATING ALZHEIMER'S DISEASE” (Board of Regents, The Universityof Texas System, priority 2019, published 2022).

`N=C(N)NCCCC(NC(=O)CN)C(=O)NC(CCCCN)C(=O)NC(CCCCN)C(=O)NC(CCCNC(=N)N)C(=O)NC(CCCNC(=N)N)C(=O)NC(CCC(N)=O)C(=O)N1Cc2ccccc2C[C@H]1C(=O)N1C(C(=O)NC(CCCNC(N)N)C(=O)N2CCCC2C(=O)NC(CO)C(=O)O)CC2CCCCC21` (stereo partly shown) [(5), GRKKRRQ-TOD-RPS]: the “survival of neuroblasts overexpressing APP” value in the experiment with MC65 cells (1 μM) is listed as “improves survival”. For the same compound, in the experiment with MC65 cells (MC65, WST1 viability assay), the “cell death under tetracycline withdrawal” value is on record as “significantly reduces cell death”. Besides, the “degradation by 20S proteasome” value on 20S proteasome is listed as “resistant to degradation”. Further, the “effect on PGPH activity” value in experiment [1] is listed as “weak inhibitory effects; also recorded: did not seem to significantly affect”. Moreover, the “learning and memory, novel object recognition” value in the experiment with hAPP(J20) mice was “efficiently explore their surroundings to recognize novel objects; also recorded: significantly enhances learning and memory”. In experiment [2], the “20S activity in gel overlay” value is recorded as “enhanced”.
With `NCCCCC(N)C(=O)NC(CCCCN)C(=O)NC(CCCCN)C(=O)Nc1cc(NC(=O)C(CCCCN)NC(=O)C(CCCCN)NC(=O)C(N)CCCCN)cc(C(=O)NC(CCCCN)C(=O)NC(CCCCN)C(=O)NC(CCCCN)C(=O)O)c1` (stereo not shown) [(8)], in experiment [1], the “effect on PGPH activity” value is given as “weak inhibitory effects; also recorded: did not seem to significantly affect”.
